# Target: T1, hROMK (hKir1.1) (Homo sapiens, UniProt P48048)
# T1 construct: expressed in transfected cells; HEK-hKir1.1)
# T1 sequence (P48048 1-391): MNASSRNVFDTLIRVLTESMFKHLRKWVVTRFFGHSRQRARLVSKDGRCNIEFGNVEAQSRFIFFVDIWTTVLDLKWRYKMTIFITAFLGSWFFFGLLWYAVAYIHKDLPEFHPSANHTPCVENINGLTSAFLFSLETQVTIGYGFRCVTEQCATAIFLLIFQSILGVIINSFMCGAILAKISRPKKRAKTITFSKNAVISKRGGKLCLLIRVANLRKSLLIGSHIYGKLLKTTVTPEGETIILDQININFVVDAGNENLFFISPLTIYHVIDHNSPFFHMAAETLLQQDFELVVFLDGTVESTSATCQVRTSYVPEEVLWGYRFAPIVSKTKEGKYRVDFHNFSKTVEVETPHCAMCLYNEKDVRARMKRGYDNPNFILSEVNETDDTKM
# Assay: Thallium Flux Assay (ROMK channel functional thallium flux assay, FLIPR-Tetra, 384 wells)
# Type: cell-based
# Conditions: HEK293 cells stably expressing hROMK (hKir1.1); 30 min incubation with test compound
# Description: The following Thallium Flux Assay was performed on the final product compounds in all the Examples. This assay makes use of the ability of thallium to permeate through open ROMK channels and increase the fluorescence of a dye previously loaded into the cells. Under control conditions, cells loaded with dye and exposed to thallium-containing medium display a time-dependent increase in fluorescence, the rate of which depends on number of functional channels. When cells are incubated in the presence of a channel inhibitor, the increase in fluorescence is attenuated in a concentration-dependent manner, and IC50 values of inhibition by compounds can be accurately determined. This assay has been established with cell lines expressing either human, or rat ROMK channels, and operates in 384-well format.
# HEK293 cells stably expressing hROMK (hKir1.1) were grown at 37° C. in a 10% CO2 humidified incubator in complete growth media: Dulbecco's Modified Eagle Medium supplemented with non-essential amino acids, Penicillin/Streptomycin/Glutamine, G418 and FBS. At >80% confluency, aspirate the media from the flask and rinse with 10 mL Calcium/Magnesium-free PBS. Add 5 mL of 1× trypsin (prepared in Ca/Mg Free PBS) to T-225 flask and return flask to 37° C./CO2 incubator for 2-3 minutes. To dislodge the cell, gently bang the side of the flask with your hand. Triturate the cells completely and then transfer the cells to 25 mL complete media. Centrifuge at 1,500 rpm for 6 min followed by resuspension in complete growth media and determine cell concentration. For typical re-seeding, 4E6 cells/T-225 flask will attain >80% confluency in 4 days. Under ideal growth conditions and appropriate tissue culture practices, this cell line is stable for 40-45 passages.
# • FluxOR™ Reagent (Component A) • FluxOR™ Assay Buffer (Component B)—10× Concentrate • PowerLoad™ Concentrate (Component C)—100× Concentrate • Probenecid (Component D)—Lyophilized sample is kept at −20° C. Water soluble, 100× after solubilization in 1 mL water. […] Store at 4° C. • Thallium sulfate (Tl2SO4) Concentrate (Component G)—50 mM in water. Store at 4° C. • DMSO (dimethyl sulfoxide, Component H)—1 mL (100%) Reagent Preparation: FluxOR Working Solutions • 1000× FluxOR™ Reagent: Reconstitute a vial of component A in 100 μl DMSO; Mix well; Store 10 μl aliquots at −20° C. • 1× FluxOR™ Assay Buffer: Dilute Component B 10-fold with water; Adjust pH to 7.4 with Hepes/NaOH; Filter and store at 4° C. • Probenecid/Assay Buffer: 100 mL of 1× FluxOR™ Assay Buffer; 1 mL of reconstituted component D; Store at 4° C. • Loading Buffer (per microplate): 10 μl 1000× FluxOR™ Reagent; 100 μl component C; 10 mL Probenecid/Assay Buffer • Compound Buffer (per microplate): 20 mL Probenecid/Assay Buffer; 0.3 mM ouabain (10 mM ouabain in water can be stored in amber bottle/aluminum foil at room temperature); Test compound • 1× FluxOR™ Chloride-Free Buffer: Prepare 1× working solution in water. Can be stored at room temperature • Stimulant Buffer (prepared at 5× final concentration in 1× FluxOR™ Chloride-Free Buffer): 7.5 mM Thallium sulfate and 0.75 mM Potassium sulfate (to give a final assay concentration of 3 mM Thallium/0.3 mM Potassium). Store at 4° C. when not in use. If kept sterile, this solution is good for months. Assay Protocol—
# The ROMK channel functional thallium flux assay is performed in 384 wells, using the FLIPR-Tetra instrument. HEK-hKir1.1 cells are seeded in Poly-D-Lysine microplates and kept in a 37° C.-10% CO2 incubator overnight. On the day of the experiment, the growth media is replaced with the FluxOR™ reagent loading buffer and incubated, protected from light, at ambient temperature (23-25° C.) for 90 min. The loading buffer is replaced with assay buffer±test compound followed by 30 min incubation at ambient temperature, where the Thallium/Potassium stimulant is added to the microplate.
# • 1. Seed HEK-hKir1.1 cells (50 μl at 20,000 cells/well) in 384-well PDL coated Microplates • 2. […]
row,IC50 [nM],SMILES
1,140,"Cc1c([C@@H](O)CN2CCN(c3cnc4cc(C#N)ccc4c3)C(=O)C2)ccc2c1COC2=O [Example 11, 3-{4-[(2R)-2-Hydroxy-2-(4-methyl-1-oxo-1,3-dihydro-2-benzofuran-5-yl)ethyl]-2-oxopiperazin-1-yl}quinoline-7-carbonitrile]"
2,160,"Cc1c([C@@H](O)CN2CCN(c3ccc4cc(C#N)sc4c3)C(=O)C2)ccc2c1COC2=O [Example 14, 6-{4-[(2R)-2-Hydroxy-2-(4-methyl-1-oxo-1,3-dihydro-2-benzofuran-5-yl)ethyl]-2-oxopiperazin-1-yl}-1-benzothiophene-2-carbonitrile]"
3,220,"Cc1c([C@@H](O)CN2CCN(c3ccc4nc(S(C)(=O)=O)ccc4c3)C(=O)C2)ccc2c1COC2=O [Example 15, 4-[(2R)-2-hydroxy-2-(4-methyl-1-oxo-1,3-dihydro-2-benzofuran-5-yl)ethyl]-1-[2-(methylsulfonyl)quinolin-6-yl]piperazin-2-one]"
4,80,"Cc1cc2nc(N3CCN(C[C@H](O)c4ccc5c(c4C)COC5=O)CC3=O)ccc2cc1C#N [Example 12, 2-{4-[(2R)-2-Hydroxy-2-(4-methyl-1-oxo-1,3-dihydro-2-benzofuran-5-yl)ethyl]-2-oxopiperazin-1-yl}-7-methylquinoline-6-carbonitrile]"
5,210,"Cc1c([C@@H](O)CN2CCN(c3ccc4cc(C#N)cnc4c3)C(=O)C2)ccc2c1COC2=O [Example 10, 7-{4-[(2R)-2-Hydroxy-2-(4-methyl-1-oxo-1,3-dihydro-2-benzofuran-5-yl)ethyl]-2-oxopiperazin-1-yl}quinoline-3-carbonitrile]"
6,150,"Cc1c([C@@H](O)CN2CCN(c3cc4ccc(C#N)c(C)c4cn3)C(=O)C2)ccc2c1COC2=O [Example 13, 3-{4-[(2R)-2-Hydroxy-2-(4-methyl-1-oxo-1,3-dihydro-2-benzofuran-5-yl)ethyl]-2-oxopiperazin-1-yl}-8-methylisoquinoline-7-carbonitrile]"

# More lines, now with the values behind:
row,SMILES,IC50 [nM]
1,"Cc1cc2c(cc1C(O)CN1CCN(c3ccc4cc(C#N)ccc4c3)C(=O)C1)COC2=O (racemic) [Example 3, 6-{4-[2-Hydroxy-2-(6-methyl-1-oxo-1,3-dihydro-2-benzofuran-5-yl)ethyl]-2-oxopiperazin-1-yl}naphthalene-2-carbonitrile]",70
2,"Cc1c([C@@H](O)CN2CCN(c3ccc4cc(C#N)ccc4c3)C(=O)C2)ccc2c1COC2=O [Example 2, 6-{4-[(2R)-2-Hydroxy-2-(4-methyl-1-oxo-1,3-dihydro-2-benzofuran-5-yl)ethyl]-2-oxopiperazin-1-yl}naphthalene-2-carbonitrile]",50
3,"N#Cc1ccc2cc(N3CCN(CCc4ccc5c(c4)COC5=O)CC3=O)ccc2c1 [Example 1, 6-{2-Oxo-4-[2-(1-oxo-1,3-dihydro-2-benzofuran-5-yl)ethyl]piperazin-1-yl}naphthalene-2-carbonitrile]",60
4,"Cc1c([C@@H](O)CN2CCN(c3ccc4cc(C#N)sc4n3)C(=O)C2)ccc2c1COC2=O [Example 8, 6-{4-[(2R)-2-Hydroxy-2-(4-methyl-1-oxo-1,3-dihydro-2-benzofuran-5-yl)ethyl]-2-oxopiperazin-1-yl}thieno-[2,3-b]pyridine-2-carbonitrile]",160
5,"Cc1c([C@@H](O)CN2CCN(c3cc4ccc(C#N)cc4cn3)C(=O)C2)ccc2c1COC2=O [Example 5, 3-{4-[(2R)-2-Hydroxy-2-(4-methyl-1-oxo-1,3-dihydro-2-benzofuran-5-yl)ethyl]-2-oxopiperazin-1-yl}isoquinoline-7-carbonitrile]",80
6,"Cc1c([C@@H](O)CN2CCN(c3nc4cc(C#N)ccc4s3)C(=O)C2)ccc2c1COC2=O [Example 7, 2-{4-[(2R)-2-Hydroxy-2-(4-methyl-1-oxo-1,3-dihydro-2-benzofuran-5-yl)ethyl]-2-oxopiperazin-1-yl}-1,3-benzothiazole-5-carbonitrile]",40
7,"Cc1c([C@@H](O)CN2CCN(c3ccc4ccc(C#N)cc4c3)C(=O)C2)ccc2c1COC2=O [Example 6, 7-{4-[(2R)-2-Hydroxy-2-(4-methyl-1-oxo-1,3-dihydro-2-benzofuran-5-yl)ethyl]-2-oxopiperazin-1-yl}naphthalene-2-carbonitrile]",90
8,"Cc1c([C@@H](O)CN2CCN(c3nc4ccc(C#N)cc4s3)C(=O)C2)ccc2c1COC2=O [Example 9, 2-{4-[(2R)-2-Hydroxy-2-(4-methyl-1-oxo-1,3-dihydro-2-benzofuran-5-yl)ethyl]-2-oxopiperazin-1-yl}-1,3-benzothiazole-6-carbonitrile]",90

# — patent publication US8999991B2, “Inhibitors of the renal outer medullary potassium channel” (Merck Sharp & Dohme Corp., priority 2011, dated 2015)
